# According to patent publication US12697325B2 (TENNOR THERAPEUTICS (SUZHOU) LIMITED, priority 2021, dated 2026):
# Read-outs that look alike come from different tables or passages of the source.
# Columns and labels:
# [1] = Pharmacokinetics in plasma and bronchoalveolar lavage fluid of female CD-1 mice; format: in vivo; conditions: female, CD-1, mouse
# Procedure: An appropriate amount of the test drug was accurately weighed and mixed with the appropriate volume of vehicle (5% DMSO+0.5% Tween 80 in normal saline) to obtain a clear solution for the test in Table 9. The formulation solution for injection was prepared to sterile filtration through a 0.22 μm filter prior to administration. The mice were dosed with the drug within 30 min after the formulated solution for injection was prepared. A 1.5 mL of the formulation solution for injection was transferred into a polypropylene microcentrifuge tube for dose verification by LC/UV or LC-MS/MS.
# All blood samples were transferred to pre-frozen EDTA-K2 tubes and placed on wet ice until centrifugation. […]
# Plasma: approximately 100 μL of blood sample was transferred into pre-cooled commercial EDTA-K2 tubes and placed on wet ice until centrifugation. After the blood samples were centrifuged at approximately 4° C. and 3, 200 g for 10 min, plasma was collected and transferred to pre-labeled 96-well plates or polypropylene tubes, flash frozen on dry ice, and stored at ≤−60° C. until the analysis by LC-MS/MS.
# Serum: approximately 100 μL of blood sample was transferred into a tube without anticoagulant and placed on wet ice for approximately 30 min and centrifuged at 4° C. and 3,000 g for 10 min, and the serum was collected and transferred into pre-labeled PP tubes placed on wet ice. After the completion of all the collections, serum samples were stored at −60° C. until being sent to the animal experimental team to determine urea concentration.
# Bronchoalveolar lavage fluid (BALF): pre-cooled tracheo-alveolar lavage fluid was injected into the trachea or predefined bronchi. After a full expansion of the lung tissue, the lavage fluid was slowly drawn out with a syringe 30 s later. The lung was lavaged three times. During the last lavage, the lung tissue was gently squeezed to restore the fluid. To prevent contamination of other lung tissues, the corresponding bronchi were ligated. Both lungs of the mice were perfused with 0.8 mL.
# […] Approximately 200 μL of the BALF samples were transferred into a polypropylene tube, rapidly frozen on dry ice, maintained at ≤−60° C., and sent to the animal experimental team to determine urea concentration. The remaining BALF samples (approximately 600 μL) were rapidly frozen on dry ice and maintained at ≤−60° C. until being submitted for drug concentration analysis by LC-MS/MS.
# [2] = Stability of sulbactam sodium and avibactam sodium in different pH buffers (HPLC purity); format: physicochemical; conditions: 20° C., 24 h; for Purity in pH buffer (monomer): purity 100% at 0 h, alone; for Purity in pH buffer (in mixture): mixture 4:1 (sulbactam sodium 1 mg/mL, avibactam sodium 0.25 mg/mL)
# [3] = system: Acinetobacter baumannii strains; experiment: Minimum inhibitory concentration (CLSI M07), Example 2, 20 strains; format: cell-based
# Procedure: The minimum inhibitory concentration (MIC) was determined in accordance with the requirements of the Clinical and Laboratory Standards Institute (CLSI) M07 (for aerobic bacteria).
# 3.1 The compounds were diluted with DMSO up to 100 times of the highest concentration tested.
# The steps of manual dilution are as follows (example): firstly, the compound or antibiotic was diluted to 100 times of the maximum final concentration tested, then 60 μL of compound mother liquor was added to the first column of the 96-well plate, and 30 μL of DMSO was added to each well in the second to the 12th column; 30 μL of the liquid was transferred from the first column to the second column. After being pipetted up and down to even, 30 μL was transferred to the third column, and was diluted in sequence at a 2-fold gradient for a total of 10 times; then 30 μL was removed from each well in the 11th column, then a compound solution diluted at 2-fold gradient was obtained and 1 μL was transferred to a 96-well test plate.
# Aerobic bacteria: the strains were inoculated on MHA one day in advance and incubated overnight at 37° C. On the day of the assay, 5-6 single colonies were picked and suspended evenly in saline, and the bacterial concentration was adjusted to the turbidity of 0.5 McFarland standard (concentration is about 1×10^8 CFU/mL). The bacterial suspension was diluted at 200-fold with the corresponding liquid culture medium (Table 1), i.e., the bacterial concentration was ~5×10^5 CFU/ml, and then 100 μL of the liquid was transferred to a 96-well round bottom plate (the 96-well plate with compound prepared in 4.2, Echo method) to obtain the test plate. If the compound was manually diluted, then 99 μL of the solution was transferred into a 96-well round bottom plate. The 96-well round bottom plate obtained above was placed into an incubator at 37° C. and 85% humidity to incubate for 20 h.
compound,measurement,setting,value
"NC(=O)[C@@H]1CC[C@@H]2CN1C(=O)N2OS(=O)(=O)O [Avibactam, [(2S,5R)-2-carbamoyl-7-oxo-1,6-diazabicyclo [3.2.1]oct-6-yl] bisulfate]",Kp at 0.5 h,"[1]; BALF/plasma, intravenous, 25 mg/kg, 0.50 h, read-out: BALF/plasma ratio Mean",0.0474
same,Kp at 3 h,"[1]; BALF/plasma, intravenous, 150 mg/kg, 3.00 h, read-out: BALF/plasma ratio Mean",0.0319
same,Kp at 5 h,"[1]; BALF/plasma, intravenous, 150 mg/kg, 5.00 h, read-out: BALF/plasma ratio Mean",0.153
same,Kp at 8 h,"[1]; BALF/plasma, intravenous, 150 mg/kg, 8.00 h, read-out: BALF/plasma ratio Mean",0.211
same,concentration at 0.5 h,"[1]; ELF, intravenous, 0.50 h, group 01 (25 mg/kg per Table 9), read-out: ELF concentration Mean ± SD",5400 ± 2390 ng/mL
same,concentration at 3 h,"[1]; ELF, intravenous, 3.00 h, 150 mg/kg, read-out: ELF concentration Mean ± SD",4730 ± 2410 ng/mL
same,concentration at 5 h,"[1]; ELF, intravenous, 5.00 h, 150 mg/kg, read-out: ELF concentration Mean ± SD",129 ± 75.2 ng/mL
same,concentration at 8 h,"[1]; ELF, intravenous, 8.00 h, 150 mg/kg, read-out: ELF concentration Mean ± SD",22.2 ng/mL
same,concentration at 0.5 h,"[1]; bronchoalveolar lavage fluid (BALF), intravenous, 0.50 h, group 01 (25 mg/kg per Table 9), read-out: BALF concentration Mean ± SD",849 ± 210 ng/mL
same,concentration at 3 h,"[1]; bronchoalveolar lavage fluid (BALF), intravenous, 3.00 h, 150 mg/kg, read-out: BALF concentration Mean ± SD",626 ± 459 ng/mL
same,concentration at 5 h,"[1]; bronchoalveolar lavage fluid (BALF), intravenous, 5.00 h, 150 mg/kg, read-out: BALF concentration Mean ± SD",19 ± 11.6 ng/mL
same,concentration at 8 h,"[1]; bronchoalveolar lavage fluid (BALF), intravenous, 8.00 h, 150 mg/kg, read-out: BALF concentration Mean ± SD",5.37 ng/mL
same,concentration at 0.25 h,"[1]; plasma, 0.25 h, group 01 (25 mg/kg per Table 9), intravenous dripping, read-out: Plasma concentration Mean ± SD",16500 ± 2260 ng/mL
same,concentration at 0.5 h,"[1]; plasma, 0.50 h, group 01 (25 mg/kg per Table 9), intravenous dripping, read-out: Plasma concentration Mean ± SD",17900 ± 2040 ng/mL
same,concentration at 1 h,"[1]; plasma, 1.00 h, 150 mg/kg intravenous dripping, read-out: Plasma concentration Mean ± SD",18800 ± 3070 ng/mL
same,concentration at 3 h,"[1]; plasma, 3.00 h, 150 mg/kg intravenous dripping, read-out: Plasma concentration Mean ± SD",18300 ± 4530 ng/mL
same,concentration at 4 h,"[1]; plasma, 4.00 h, 150 mg/kg intravenous dripping, read-out: Plasma concentration Mean ± SD",285 ± 226 ng/mL
same,concentration at 5 h,"[1]; plasma, 5.00 h, 150 mg/kg intravenous dripping, read-out: Plasma concentration Mean ± SD",123 ± 34.8 ng/mL
same,concentration at 6 h,"[1]; plasma, 6.00 h, 150 mg/kg intravenous dripping, read-out: Plasma concentration Mean ± SD",57.8 ± 3.1 ng/mL
same,concentration at 8 h,"[1]; plasma, 8.00 h, 150 mg/kg intravenous dripping, read-out: Plasma concentration Mean ± SD",28.5 ± 9.52 ng/mL
same,Purity in pH buffer (monomer),[2]; pH 4.0 buffer,−24.20%
same,Purity in pH buffer (in mixture),[2]; pH 4.0 buffer,−23.74%
same,Purity in pH buffer (monomer),[2]; pH 4.5 buffer,−2.31%
same,Purity in pH buffer (in mixture),[2]; pH 4.5 buffer,−1.42%
same,Purity in pH buffer (monomer),[2]; pH 5.0 buffer,−0.71%
same,Purity in pH buffer (in mixture),[2]; pH 5.0 buffer,−0.99%
same,Purity in pH buffer (monomer),[2]; pH 5.5 buffer,−0.77%
same,Purity in pH buffer (in mixture),[2]; pH 5.5 buffer,−0.54%
same,Purity in pH buffer (monomer),[2]; pH 6.0 buffer,−1.75%
same,Purity in pH buffer (in mixture),[2]; pH 6.0 buffer,−1.76%
same,Purity in pH buffer (monomer),[2]; pH 7.3 buffer,−0.81%
same,Purity in pH buffer (in mixture),[2]; pH 7.3 buffer,−1.06%
same,Purity in pH buffer (monomer),[2]; pH 8.0 buffer,−8.87%
same,Purity in pH buffer (in mixture),[2]; pH 8.0 buffer,−8.81%
same,MIC of the strain BAA-1795 (component in the combination),"[3]; strain BAA-1795, sulbactam/avibactam 4:1, concentration of the named component",2 µg/mL
same,MIC90 of the single component in the combination,"[3]; sulbactam sodium:avibactam sodium = 4:1, concentration of the named component",4 µg/mL
same,MIC50 of the single component in the combination,"[3]; sulbactam sodium:avibactam sodium = 4:1, concentration of the named component, Examples 1 and 2",2 µg/mL
